# Data from ChEMBL document CHEMBL3351419, “Orally bioavailable 6-chloro-7-methoxy-4(1H)-quinolones efficacious against multiple stages of Plasmodium” (J Med Chem, 2014).
# How the values were obtained:
# Plasmodium falciparum [1] = experiment: Antimalarial activity against multi-drug-resistant Plasmodium falciparum W2 infected in human type A+ erythrocytes assessed as growth inhibition after 72 hrs by SYBR Green I assay; type: functional, organism-based; conditions: W2, 72 h
# Plasmodium falciparum [2] = experiment: Antimalarial activity against multi-drug-resistant Plasmodium falciparum TM90-C2B infected in human type A+ erythrocytes assessed as growth inhibition after 72 hrs by SYBR Green I assay; type: functional, organism-based
# [3] = Resistance index, ratio of EC50 for multi-drug-resistant Plasmodium falciparum TM90-C2B infected in human type A+ erythrocytes to EC50 for multi-drug-resistant Plasmodium falciparum W2 infected in human type A+ erythrocytes; type: functional
# J774 = experiment: Cytotoxicity against mouse J774 cells after 72 hrs by CellTiter 96 assay; type: cell-based; conditions: J774, 72 h
# [4] = Cytotoxicity index, ratio of EC50 for mouse J774 cells to EC50 for multi-drug-resistant Plasmodium falciparum TM90-C2B infected in human type A+ erythrocytes; type: toxicity, cell-based; conditions: read-out: Ratio EC50
# [5] = Intrinsic clearance in human liver microsomes at 1 uM by LC-MS analysis; type: ADME; conditions: liver microsomes, read-out: CLH
# [6] = Aqueous solubility of the compound at pH 7.4; type: physicochemical; conditions: buffer
# Plasmodium berghei [7] = experiment: Antimalarial activity against Plasmodium berghei ANKA expressing GFP infected in Balb/c mouse assessed as inhibition of parasitemia at 50 mg/kg, po qd administered as single dose on day 3 to 5 of exposure measured on day 6 post exposure by in vivo thomson test relative to control; type: functional
# Plasmodium berghei [8] = experiment: Antimalarial activity against Plasmodium berghei ANKA expressing GFP infected in Balb/c mouse assessed as inhibition of parasitemia at 10 mg/kg, po qd administered as single dose on day 3 to 5 of exposure measured on day 6 post exposure by in vivo thomson test relative to control; type: functional
# Plasmodium berghei [9] = experiment: Antimalarial activity against Plasmodium berghei ANKA expressing GFP infected in Balb/c mouse assessed as mouse survival at 50 mg/kg, po qd administered as single dose on day 3 to 5 of exposure measured on day 6 post exposure by in vivo thomson test relative to control; type: functional
# Plasmodium berghei [10] = experiment: Antimalarial activity against Plasmodium berghei ANKA expressing GFP infected in Balb/c mouse assessed as mouse survival at 10 mg/kg, po qd administered as single dose on day 3 to 5 of exposure measured on day 6 post exposure by in vivo thomson test relative to control; type: functional
# Plasmodium berghei [11] = experiment: Antimalarial activity against Plasmodium berghei ANKA expressing GFP infected in Balb/c mouse assessed as mouse cured from disease at 50 mg/kg, po qd administered as single dose on day 3 to 5 of exposure measured on day 30 post exposure by in vivo thomson test relative to control; type: functional
# Plasmodium berghei [12] = experiment: Antimalarial activity against Plasmodium berghei ANKA expressing GFP infected in Balb/c mouse assessed as mouse cured from disease at 10 mg/kg, po qd administered as single dose on day 3 to 5 of exposure measured on day 30 post exposure by in vivo thomson test relative to control; type: functional
# [13] = octanol/water, pH 7.4
# in vitro = conditions: pampa, pH 7.4
# Description: (§1) Effective permeability of the compound at pH 7.4 by PAMPA
# Plasmodium berghei [14] = experiment: Antimalarial activity against Plasmodium berghei ANKA expressing GFP infected in Balb/c mouse assessed as inhibition of parasitemia at 3 mg/kg, po qd administered as single dose on day 3 to 5 of exposure measured on day 6 post exposure by in vivo thomson test relative to control; type: functional
# Plasmodium berghei [15] = experiment: Antimalarial activity against Plasmodium berghei ANKA expressing GFP infected in Balb/c mouse assessed as inhibition of parasitemia at 1 mg/kg, po qd administered as single dose on day 3 to 5 of exposure measured on day 6 post exposure by in vivo thomson test relative to control; type: functional
# Plasmodium berghei [16] = experiment: Antimalarial activity against Plasmodium berghei ANKA expressing GFP infected in Balb/c mouse assessed as mouse survival at 3 mg/kg, po qd administered as single dose on day 3 to 5 of exposure measured on day 6 post exposure by in vivo thomson test relative to control; type: functional
# Plasmodium berghei [17] = experiment: Antimalarial activity against Plasmodium berghei ANKA expressing GFP infected in Balb/c mouse assessed as mouse survival at 1 mg/kg, po qd administered as single dose on day 3 to 5 of exposure measured on day 6 post exposure by in vivo thomson test relative to control; type: functional
# Plasmodium berghei [18] = experiment: Antimalarial activity against Plasmodium berghei ANKA expressing GFP infected in Balb/c mouse assessed as mouse cured from disease at 3 mg/kg, po qd administered as single dose on day 3 to 5 of exposure measured on day 30 post exposure by in vivo thomson test relative to control; type: functional
# Rattus norvegicus = experiment: Half life in Sprague-Dawley rat at 0.15 mg/kg, iv; type: ADME, organism-based; set-up: dose 0.15 mg/kg, route intravenous; conditions: in vivo
# [19] = Plasma clearance in Sprague-Dawley rat at 0.15 mg/kg, iv; type: ADME, organism-based; set-up: dose 0.15 mg/kg, route intravenous
# [20] = Volume of distribution in Sprague-Dawley rat at 0.15 mg/kg, iv; type: ADME, organism-based; set-up: dose 0.15 mg/kg, route intravenous; conditions: in vivo
# [21] = Apparent oral bioavailability in Sprague-Dawley rat at 10 mg/kg; type: ADME, organism-based; conditions: in vivo
# Plasmodium berghei [22] = experiment: Antimalarial activity against Plasmodium berghei ANKA expressing GFP infected in Balb/c mouse assessed as inhibition of parasitemia at 0.3 mg/kg, po qd administered as single dose on day 3 to 5 of exposure measured on day 6 post exposure by in vivo thomson test relative to control; type: functional
# Plasmodium berghei [23] = experiment: Antimalarial activity against Plasmodium berghei ANKA expressing GFP infected in Balb/c mouse assessed as mouse survival at 0.3 mg/kg, po qd administered as single dose on day 3 to 5 of exposure measured on day 6 post exposure by in vivo thomson test relative to control; type: functional
# [24] = pampa, pH 7.4
# Description: as §1
# Liver = experiment: Half life in mouse liver microsomes at 1 uM by LC-MS analysis; type: ADME
# Plasmodium berghei [25] = experiment: Antimalarial activity against Plasmodium berghei ANKA expressing GFP infected in Balb/c mouse assessed as mouse survival at 30 mg/kg, po qd administered as single dose on day 3 to 5 of exposure measured on day 6 post exposure by in vivo thomson test relative to control; type: functional
Structure (SMILES),EC50 (Plasmodium falciparum [1]) [nM],EC50 (Plasmodium falciparum [2]) [nM],Ratio EC50 [3],EC50 (J774) [nM],selectivity ratio [4],solubility kinetic [6] [µM],inhibition in vivo at 10 mg/kg (Plasmodium berghei [8]) [%],survival time at 10 mg/kg (Plasmodium berghei [10]) [days],Activity (Plasmodium berghei [12]) [%],logD [13],inhibition in vivo at 3 mg/kg (Plasmodium berghei [14]) [%],inhibition in vivo at 1 mg/kg (Plasmodium berghei [15]) [%],survival time at 3 mg/kg (Plasmodium berghei [16]) [days],survival at 1 mg/kg (Plasmodium berghei [17]) [days],Activity (Plasmodium berghei [18]) [%],also measured
COc1cc2[nH]c(C)c(-c3cccnc3)c(=O)c2cc1Cl,748,120,0.16,> 33300,> 277,,,,,,,,,,,microsomal CLint at 1 µM [5]: 15 µL/min/mg
COc1cc2[nH]c(C)c(-c3ccc(Cl)cc3C)c(=O)c2cc1Cl,14.2,,,> 28700,,< 2,95,5,0,2.9,,,,,,inhibition in vivo at 50 mg/kg (Plasmodium berghei [7]): 71%; mouse survival time at 50 mg/kg (Plasmodium berghei [9]): 5 days; Activity (Plasmodium berghei [11]): 0%; Papp (in vitro): 369 ×10⁻⁶ cm/s
COc1cc2[nH]c(C)c(-c3ccc(Oc4ccc(OC(F)(F)F)cc4)cc3F)c(=O)c2cc1Cl,3.74,15.2,4.07,> 20200,> 1330,< 2,99.5,23,100,3.4,99.3,99.3,23,23,100,inhibition in vivo at 50 mg/kg (Plasmodium berghei [7]): 99.2%; mouse survival time at 50 mg/kg (Plasmodium berghei [9]): 23 days; Activity (Plasmodium berghei [11]): 100%; t1/2 (Rattus norvegicus): 32 h; clearance [19]: 0.3 mL/min/kg; Vd [20]: 0.7 L/kg; bioavailability [21]: 14%
COc1cc2[nH]c(C)c(-c3ccc(-c4ccc(C(F)(F)F)cc4F)nc3)c(=O)c2cc1Cl,0.602,1.06,1.76,> 21600,> 20400,6 to 12,95.2,23,100,3.7,96.3,94.5,23,23,100,inhibition in vivo at 0.3 mg/kg (Plasmodium berghei [22]): 94.3%; survival at 0.3 mg/kg (Plasmodium berghei [23]): 23 days; Peff [24]: 1070 ×10⁻⁶ cm/s
COc1cc2[nH]c(C)c(-c3ccc(-c4ccc(OC(F)(F)F)cc4)nc3)c(=O)c2cc1Cl,0.686,2.03,2.95,> 21700,> 10700,6 to 12,97.3,23,100,3.7,97.3,95.8,23,23,80,inhibition in vivo at 0.3 mg/kg (Plasmodium berghei [22]): 93.9%; survival at 0.3 mg/kg (Plasmodium berghei [23]): 23 days
CCCCCCCc1c(C)nc2cc(OC)ccc2c1O,,,,,,,,,,,,,,,,t1/2 (Liver): 7.9 min
CCN(CC)Cc1cc(Nc2ccnc3cc(Cl)ccc23)ccc1O [AMODIAQUINE],,,,,,,,,,,,,,,,survival at 30 mg/kg (Plasmodium berghei [25]): 23 days
